One block for each compound: values may come before it.
Key:
hTAS1R1 = target: T1, hTAS1R1 (Homo sapiens, UniProt Q7RTX1); experiment: Calcium assay, subunit expressed alone; format: cell-based
T1 construct: UniProtKB number Q7RTX1–1); expressed in transfected cells; host or cells: HEK293 cells
T1 sequence (Q7RTX1 21-841): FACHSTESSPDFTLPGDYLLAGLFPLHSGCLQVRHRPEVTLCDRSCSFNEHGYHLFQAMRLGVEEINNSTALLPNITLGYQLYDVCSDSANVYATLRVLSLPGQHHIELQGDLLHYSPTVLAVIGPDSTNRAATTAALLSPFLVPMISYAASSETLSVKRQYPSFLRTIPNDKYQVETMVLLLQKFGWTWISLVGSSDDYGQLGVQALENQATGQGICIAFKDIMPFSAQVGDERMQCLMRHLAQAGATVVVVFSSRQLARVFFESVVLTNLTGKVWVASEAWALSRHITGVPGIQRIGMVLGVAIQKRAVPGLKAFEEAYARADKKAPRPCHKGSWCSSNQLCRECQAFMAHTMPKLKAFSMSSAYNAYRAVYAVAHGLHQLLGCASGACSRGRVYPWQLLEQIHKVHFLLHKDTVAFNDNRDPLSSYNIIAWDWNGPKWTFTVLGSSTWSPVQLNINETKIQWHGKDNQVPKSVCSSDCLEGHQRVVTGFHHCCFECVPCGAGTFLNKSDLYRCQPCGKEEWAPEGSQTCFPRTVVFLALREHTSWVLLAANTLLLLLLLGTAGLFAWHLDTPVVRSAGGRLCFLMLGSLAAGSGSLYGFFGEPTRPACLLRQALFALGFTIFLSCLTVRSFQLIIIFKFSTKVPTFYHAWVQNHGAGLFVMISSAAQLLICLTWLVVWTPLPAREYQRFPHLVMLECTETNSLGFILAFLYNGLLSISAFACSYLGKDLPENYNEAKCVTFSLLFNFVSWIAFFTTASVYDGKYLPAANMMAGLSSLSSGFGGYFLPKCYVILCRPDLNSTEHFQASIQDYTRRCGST
Description: HEK293T/17 cells (ATCC CRL-11268) were seeded into clear bottom black 96-well plates coated with poly-D-lysine at a density of 32500 cells/well in 100 μL of DMEM containing 4.5 g/L glucose and supplemented with penicillin/streptomycin, 2 mM GlutaMAX and 10 % dialyzed fetal bovine serum. The plates were incubated for 24 h at 37 °C and 7.3 % CO2 in a humidified atmosphere. After incubation, using Fugene® 4 K (0.46 μL/well, Promega, Illkirch, France), the cells were transiently transfected with pcDNA3-hTAS1R1-WT (60 ng/well) or TAS1R1 mutants, pcDNA4-rTAS1R3 (60 ng/well), pcDNA3-Gα15i2 (10 ng/well), and pGP-CMV-GCaMP6s (Addgene #40753; 10 ng/well) as a genetically encoded calcium indicator. Twenty-four hours after transfection, the HEK293T/17 cells were rinsed with 100 μL of C1 buffer (130 mM NaCl, 5 mM KCl, 10 mM HEPES, 2 mM CaCl2, and 5 mM sodium pyruvate, pH 7.4). For each molecule tested, a semi-logarithmic concentration range was created consisting of seven increasing concentrations and a negative control (zero dose) made of buffer C1. […] After 20 s of basal fluorescence calcium measurement, the cells were stimulated via automatic injection of a range of compounds in eight wells, and the signal emission was recorded for an additional 70 s, via a FlexStation 3® fluorometric microplate reader (Molecular Devices, San Jose, CA, USA). […] The emitted fluorescence was measured at a wavelength of 510 nm after excitation at 488 nm. […] For each well, the decrease in the raw fluorescence as the relative fluorescence changed was calculated as ΔF/F0. Replicates were averaged for the wells subjected to the same stimuli, the background signal was subtracted, and the fluorescence changes in mock-transfected cells were subtracted. The half-maximal effective concentration (EC50) and maximal signal amplitude (max ∆F/F0) were calculated via non-linear regression of the sigmoidal function four-parameter logistic equation [f(x) = min + (max − min)/(1 + (x/EC50)^nH)] via SigmaPlot 15.0 software (Grafiti LLC, Palo Alto, CA, USA). […]

[1] = target: T2, hTAS1R2/hTAS1R3(r570–858) (Homo sapiens, UniProt Q7RTX0+Q8TE23, A579V/A607F/A718V/A733V/A735I/A808T/C675Y/C757R/D670N/F730L/G674S/G822E/H593Y/H712Q/L571S/L639M/L789Y/L798I/L800F/L816V/M689T/M713V/M818L/P605S/P630S/P826Q/Q627R/Q820L/R594W/R632S/R671W/R752Q/R790Q/R813K/R819W/S577C/S629R/S640A/S673C/T697A/T724M/T739V/T774I/V583T/V612I/V617F/V693A/V701M/V720E/V788A/V802A); experiment: Calcium assay, chimeric TAS1R3 co-expressed with hTAS1R2; format: cell-based, rat
T2 construct: hTAS1R3(r570–858) consists of the N-terminal extracellular domain of hTAS1R3 and the TMD of rTAS1R3; TMD of rTAS1R3 (r570–858); expressed in transfected cells
T2 sequence (Q8TE23 20-839, stated change not applied): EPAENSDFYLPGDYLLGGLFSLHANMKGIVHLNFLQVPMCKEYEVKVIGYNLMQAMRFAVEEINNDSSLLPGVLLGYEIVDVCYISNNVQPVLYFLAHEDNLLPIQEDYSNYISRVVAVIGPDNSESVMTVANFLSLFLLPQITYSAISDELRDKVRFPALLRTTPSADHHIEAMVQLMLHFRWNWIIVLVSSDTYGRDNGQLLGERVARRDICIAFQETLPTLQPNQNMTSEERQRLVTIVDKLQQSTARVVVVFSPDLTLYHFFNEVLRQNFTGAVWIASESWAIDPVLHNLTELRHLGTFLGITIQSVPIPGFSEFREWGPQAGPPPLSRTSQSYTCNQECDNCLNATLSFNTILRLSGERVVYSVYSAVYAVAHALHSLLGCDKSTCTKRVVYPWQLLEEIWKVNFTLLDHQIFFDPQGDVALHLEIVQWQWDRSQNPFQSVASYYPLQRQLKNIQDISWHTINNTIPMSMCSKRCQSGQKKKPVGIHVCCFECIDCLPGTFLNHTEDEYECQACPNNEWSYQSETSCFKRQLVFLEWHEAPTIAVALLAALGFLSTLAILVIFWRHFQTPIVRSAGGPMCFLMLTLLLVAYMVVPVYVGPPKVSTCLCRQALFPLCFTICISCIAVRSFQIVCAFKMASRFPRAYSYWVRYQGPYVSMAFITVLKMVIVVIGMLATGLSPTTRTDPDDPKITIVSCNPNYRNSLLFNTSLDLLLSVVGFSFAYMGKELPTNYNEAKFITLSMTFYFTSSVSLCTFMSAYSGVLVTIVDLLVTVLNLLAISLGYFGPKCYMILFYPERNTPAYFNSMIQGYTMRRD
T2 sequence (Q7RTX0 with tags, fused parts or gaps with the stated changes limits assumed): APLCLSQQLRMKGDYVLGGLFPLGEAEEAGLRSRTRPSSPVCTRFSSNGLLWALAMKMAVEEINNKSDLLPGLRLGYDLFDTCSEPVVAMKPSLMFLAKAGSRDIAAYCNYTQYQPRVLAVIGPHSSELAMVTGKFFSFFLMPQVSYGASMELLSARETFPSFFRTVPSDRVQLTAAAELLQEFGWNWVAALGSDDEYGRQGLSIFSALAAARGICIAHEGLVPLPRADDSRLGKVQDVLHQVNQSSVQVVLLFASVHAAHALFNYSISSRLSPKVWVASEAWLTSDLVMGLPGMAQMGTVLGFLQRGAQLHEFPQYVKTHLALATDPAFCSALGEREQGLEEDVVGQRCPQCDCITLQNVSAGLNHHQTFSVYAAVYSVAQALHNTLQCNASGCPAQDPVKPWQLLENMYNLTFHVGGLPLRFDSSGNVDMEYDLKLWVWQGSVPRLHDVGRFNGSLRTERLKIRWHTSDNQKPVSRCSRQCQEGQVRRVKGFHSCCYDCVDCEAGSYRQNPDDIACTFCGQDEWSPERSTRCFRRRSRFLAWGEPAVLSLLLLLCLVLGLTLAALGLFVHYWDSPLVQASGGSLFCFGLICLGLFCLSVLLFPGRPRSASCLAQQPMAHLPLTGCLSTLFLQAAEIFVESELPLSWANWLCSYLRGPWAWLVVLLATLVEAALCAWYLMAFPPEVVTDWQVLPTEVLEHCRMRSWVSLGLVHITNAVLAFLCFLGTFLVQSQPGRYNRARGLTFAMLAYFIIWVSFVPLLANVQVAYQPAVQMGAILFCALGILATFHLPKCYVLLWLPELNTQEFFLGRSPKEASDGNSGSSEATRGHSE
Excerpt: Chimeric Gα proteins, such as Gα16Gust44, Gα16Gi3 or Gα15i2, are widely used in the functional expression of TAS1R receptors ([Backes et al., 2015]; [Suess et al., 2015]; [Toda et al., 2021], [Toda et al., 2013], [Toda et al., 2018]; [Zhang et al., 2008]). Chimeric Gα15i2 (([Toda et al., 2013]), Supplementary data) was generated by replacing the last five residues of the C-terminal tail of rat Gα15i2 (EINLL) (UniProt number G3V6N8; https://www.uniprot.org/uniprot/) with the counterpart sequence from human GNAI2 (DCGLF) (UniProt number P04899-1) and cloning into the pcDNA3.1/Hygro vector (Invitrogen, Thermo Fisher Scientific, Illkirch, France) between the HindIII and NotI restriction sites, resulting in the plasmid pcDNA3.1-Gα15i2. Chimeric Gα16Gust44 construct have already been reported ([Raliou et al., 2011]). Briefly, Gα16Gust44 was generated by replacing the C-terminal of Gα16 with the C-terminal 44 residues of gustducin. As previously described, hTAS1R1 was amplified from human fungiform papillae cDNA and cloned and inserted into pcDNA3 (Invitrogen), generating pcDNA3-TAS1R1-WT (wild-type) ([Raliou et al., 2011]). […]

hTAS1R2/rTAS1R3(Mut2) = target: T3, hTAS1R2/rTAS1R3(Mut2) (UniProt Q8TE23+Q923K1, L72W/P67S/S282A/Y281H); experiment: Calcium assay, mutated rTAS1R3 co-expressed with hTAS1R2; format: cell-based, human, rat
T3 construct: The cDNA coding region of rTAS1R3 was synthesized with optimized-codon usage for human expression; expressed in transfected cells
T3 sequence (Q8TE23 20-839): as the sequence (Q8TE23 20-839, stated change not applied) above
T3 sequence (Q923K1 21-858 P67S/L72W/Y281H/S282A): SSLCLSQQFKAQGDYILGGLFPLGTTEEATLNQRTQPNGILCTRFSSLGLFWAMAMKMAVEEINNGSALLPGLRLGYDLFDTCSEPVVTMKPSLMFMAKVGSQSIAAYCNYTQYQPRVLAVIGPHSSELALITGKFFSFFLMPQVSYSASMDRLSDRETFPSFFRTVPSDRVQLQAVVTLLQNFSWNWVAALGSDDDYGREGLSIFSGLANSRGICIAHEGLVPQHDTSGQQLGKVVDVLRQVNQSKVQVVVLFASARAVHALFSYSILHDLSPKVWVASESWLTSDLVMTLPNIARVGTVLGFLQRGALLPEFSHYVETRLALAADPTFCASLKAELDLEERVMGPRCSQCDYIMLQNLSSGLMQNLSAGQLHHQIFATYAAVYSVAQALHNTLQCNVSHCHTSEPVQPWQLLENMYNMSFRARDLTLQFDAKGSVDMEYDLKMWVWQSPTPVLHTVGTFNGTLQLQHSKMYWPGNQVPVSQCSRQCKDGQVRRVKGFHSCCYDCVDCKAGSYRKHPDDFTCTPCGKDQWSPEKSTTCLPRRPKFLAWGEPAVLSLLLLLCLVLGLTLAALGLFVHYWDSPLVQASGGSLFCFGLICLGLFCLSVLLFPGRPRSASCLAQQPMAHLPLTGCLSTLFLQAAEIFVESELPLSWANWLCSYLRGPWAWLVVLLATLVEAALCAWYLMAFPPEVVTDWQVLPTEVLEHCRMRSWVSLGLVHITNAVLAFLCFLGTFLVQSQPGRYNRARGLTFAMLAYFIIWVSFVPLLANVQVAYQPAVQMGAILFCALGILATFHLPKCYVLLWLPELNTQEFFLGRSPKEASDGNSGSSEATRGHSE

SMILES: N[C@@H](CCC(=O)N[C@@H](CS)C(=O)NCC(=O)O)C(=O)O [GSH, γ-L-glutamyl-L-cysteinyl-glycine]
effect of 10 mM GSH on the response to S807 (hTAS1R1): not increased | response of transfected cells (hTAS1R1; GSH alone, Fig. 5A): did not respond | effect of GSH on the response to sucralose [1]: unaffected | effect of 10 mM GSH on the response to sucralose (hTAS1R2/rTAS1R3(Mut2)): not increased

EC50 (hTAS1R1; S807 alone, Fig. 5D): 0.89 ± 0.13 µM
SMILES: CCCC(CCC)NC(=O)c1ccc2c(c1)OCO2 [S807, N-(heptan-4-yl)benzo[d][1,3]dioxole-5-carboxamide, reference compound]

EC50 ([1]; sucralose alone, Fig. 3B): 67 ± 1 µM | EC50 (hTAS1R2/rTAS1R3(Mut2); sucralose alone, Fig. 4A): 493 ± 114 µM
SMILES: OC[C@H]1O[C@H](O[C@]2(CCl)O[C@H](CCl)[C@@H](O)[C@@H]2O)[C@H](O)[C@@H](O)[C@H]1Cl [sucralose, reference compound]
